What was measured:
Assay type in all cases: biochemical
IGF1R = IGF1R (Homo sapiens, UniProt P08069); assay: AlphaScreen kinase assay, IGF1R; details: read-out: IC50, activity toward kinase IGF1R
MAP4K4 = MAP4K4 (Homo sapiens, UniProt O95819); assay: AlphaScreen kinase assay, MAP4K4; details: read-out: IC50, activity toward kinase MAP4K4
Kit = target: T1, Kit (Homo sapiens, UniProt P10721); assay: AlphaScreen kinase assay, Kit; details: read-out: IC50, activity toward kinase Kit
T1 construct: P1332.N6 BI PTP KIT M552-K948-X COD; His6 (N); made in house; host or cells: E. coli (PTP1B co-expressed)

Jnk3 = target: T2, Jnk3 (Homo sapiens, UniProt P53779); assay: AlphaScreen kinase assay, Jnk3; details: read-out: IC50, activity toward kinase Jnk3
T2 construct: purchased Upstate Biotechnology

B-Raf = target: T3, B-Raf (Homo sapiens, UniProt P15056); assay: AlphaScreen kinase assay, B-Raf; details: read-out: IC50, activity toward kinase B-Raf
T3 construct: purchased Upstate Biotechnology

MAP2K1 = target: T4, MAP2K1 (Homo sapiens, UniProt Q02750); assay: Z'-Lyte FRET kinase assay (Invitrogen), MAP2K1; details: read-out: IC50, activity toward kinase MAP2K1
T4 construct: purchased Invitrogen (assay run by Invitrogen)
Source text: For example, direct radiometric, indirect FRET or AlphaScreen assays may be used to assess the level of phosphorylation of a substrate in the presence of test compounds in order to determine the inhibitory affect of the compound on the kinase. […] For these assays, compounds of the invention were screened by Invitrogen using Z′-Lyte™ kinase assay.
Briefly, the Invitrogen kinase assay involves use of a specific peptide substrate optimized for each kinase, containing a fluorophore at each end that make up the FRET pair. The peptide sensitivity to proteolytic cleavage depends on phosphorylation of the peptide. Non-phosphorylated peptide is cleaved by a protease while peptide phosphorylated by the kinase is not cleaved. Cleavage of the peptide disrupts the FRET between the donor (coumarin) and acceptor (fluorescein) fluorophores, resulting in an increase in the ratio of donor emission to acceptor emission. The emission ratio of coumarin to fluorescein is used to assess the reaction progress. […] Thus, the assay involves a kinase reaction in the presence of varying concentrations of a given compound, a development reaction with site specific protease, and detection of the fluorescent emission ratio of coumarin and fluorscein. […] Reaction conditions for each kinase are determined to provide optimal reaction times, incubation temperature, kinase and ATP concentrations. Test samples are made up in 1× kinase buffer (50 mM HEPES pH 7.5, 50 mM MgCl2, 5 mM EGTA, 0.05% BRIJ-35) and compound at desired concentration prepared in DMSO such that the final DMSO is 1%. […] All kinase except for MAP2K1 were at 10 μM ATP in the kinase reaction, while MAP2K1 was at 100 μM. Samples are mixed and the kinase reaction is incubated 1 hour at room temperature, after which 5 μl of development solution is added and mixed. After incubation for another 1 hour at room temperature, 5 μl of stop reagent is added to each sample and mixed. The fluorescence signals are measured to determine the emission ratio.

Btk = target: T5, Btk (Homo sapiens, UniProt Q06187); assay: Z'-Lyte FRET kinase assay (Invitrogen), Btk; details: read-out: IC50, activity toward kinase Btk
T5 construct: purchased Invitrogen (assay run by Invitrogen)

Jnk1 = target: T6, Jnk1 (Homo sapiens, UniProt P45983); assay: AlphaScreen kinase assay, Jnk1; details: read-out: IC50, activity toward kinase Jnk1
T6 construct: purchased Upstate Biotechnology

FGFR1 = target: T7, FGFR1 (Homo sapiens, UniProt P11362, C488A/C584S); assay: AlphaScreen kinase assay, FGFR1; details: read-out: IC50, activity toward kinase FGFR
T7 construct: P1351.pET N6 BI-PTP FGFR A458-E765-X C488A, C584S; made in house; host or cells: E. coli (PTP1B co-expressed)

Jnk2 = target: T8, Jnk2 (Homo sapiens, UniProt P45984); assay: AlphaScreen kinase assay, Jnk2; details: read-out: IC50, activity toward kinase Jnk2
T8 construct: purchased Roche Protein Expression Group (Indianapolis, IN)
Summary of the method: (§1)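 AlphaScreen, biotin-peptide substrate; streptavidin donor/anti-phospho acceptor beads; decreased emission = inhibition. Cpds 20 mM DMSO stock, 1:3 x 8 conc.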

c-Raf-1 = target: T9, c-Raf-1 (Homo sapiens, UniProt P04049); assay: AlphaScreen kinase assay, c-Raf-1; details: read-out: IC50, activity toward kinase c-Raf-1
T9 construct: purchased Upstate Biotechnology

Src = target: T10, Src (Homo sapiens, UniProt P12931); assay: AlphaScreen kinase assay, Src; details: read-out: IC50, activity toward kinase Src
T10 construct: P1144. pET-N6 BI-PTP SRC V86-L536-X; made in house

Ret = target: T11, Ret (Homo sapiens, UniProt P07949); assay: AlphaScreen kinase assay, Ret; details: read-out: IC50, activity toward kinase Ret
T11 construct: P1378.pET-SF BI-PTP RET H661-R1012 HIS; made in house
T11 sequence (P07949 with tags, fused parts or gaps): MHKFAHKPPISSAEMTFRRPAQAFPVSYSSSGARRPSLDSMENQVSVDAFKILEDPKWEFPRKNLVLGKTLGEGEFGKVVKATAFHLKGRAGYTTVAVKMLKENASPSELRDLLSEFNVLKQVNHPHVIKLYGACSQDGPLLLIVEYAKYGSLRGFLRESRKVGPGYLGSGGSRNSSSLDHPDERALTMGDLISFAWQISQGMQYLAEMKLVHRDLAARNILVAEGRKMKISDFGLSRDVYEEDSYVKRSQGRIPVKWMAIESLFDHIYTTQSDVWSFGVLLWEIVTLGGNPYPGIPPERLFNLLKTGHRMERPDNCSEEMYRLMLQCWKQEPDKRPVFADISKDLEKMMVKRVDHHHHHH

Fms = target: T12, Fms (Homo sapiens, UniProt P07333); assay: AlphaScreen kinase assay, Fms; details: read-out: IC50, activity toward kinase Fms
T12 construct: purchased Upstate Biotechnology

Gsk3β = Gsk3β (Homo sapiens, UniProt P49841); assay: AlphaScreen kinase assay, Gsk3β; details: read-out: IC50, activity toward kinase Gsk3β
Summary of the method: as §1

B-Raf V600E = target: T13, B-Raf V600E (Homo sapiens, UniProt P15056, V600E); assay: AlphaScreen kinase assay, B-Raf V600E; details: read-out: IC50, activity toward kinase B-Raf V600E
T13 construct: P4254. pFastBacBD-CDC37 BRAF D437-K722-X, V600E; His6 with pFastBac HT leader (TEV site) (N); made in house; host or cells: Sf9 (baculovirus; chaperone CDC37 co-expressed)
Source text: AlphaScreen assay was used to screen additional kinases. The assay is similarly dependent on the phosphorylation of a peptide substrate. In this assay, an antibody that recognizes phosphorylated substrate is bound to an acceptor bead. The peptide substrate is attached to biotin, which binds to a donor head that contains streptavidin. Thus phosphorylated substrate is bound by antibody and streptavidin, bringing the donor and acceptor heads into close proximity when kinase is not inhibited. The donor produces singlet oxygen which results in emission from the acceptor when they are in close proximity. Conversely, when kinase is inhibited, the donor and acceptor beads are not associated and the emission from the acceptor is reduced.
AlphaScreen assays were done using compounds dissolved in DMSO to a concentration of 20 mM. The compounds were diluted accordingly to the desired final concentrations in each sample well, using 1:3 serial dilution for a total of 8 concentration points. Plates were prepared such that each kinase reaction is 20 μl in 1× kinase buffer, 5% DMSO and 10 μM ATP. After incubation of the kinase reaction for 1 hour at room temperature, 5 μl of donor beads in stop buffer (50 mM EDTA in 1× kinase buffer) was added, the sample was mixed and incubated for 20 minutes at room temperature before adding 5 μl of acceptor beads in stop buffer. The samples were incubated for 60 minutes at room temperature and the signal per well was read on AlphaQuest reader.

Stk6 = target: T14, Stk6 (Homo sapiens, UniProt O14965); assay: Z'-Lyte FRET kinase assay (Invitrogen), Stk6; details: read-out: IC50, activity toward kinase Stk6
T14 construct: purchased Invitrogen (Carlsbad, Calif.), screening service
T14 sequence (O14965 1-403): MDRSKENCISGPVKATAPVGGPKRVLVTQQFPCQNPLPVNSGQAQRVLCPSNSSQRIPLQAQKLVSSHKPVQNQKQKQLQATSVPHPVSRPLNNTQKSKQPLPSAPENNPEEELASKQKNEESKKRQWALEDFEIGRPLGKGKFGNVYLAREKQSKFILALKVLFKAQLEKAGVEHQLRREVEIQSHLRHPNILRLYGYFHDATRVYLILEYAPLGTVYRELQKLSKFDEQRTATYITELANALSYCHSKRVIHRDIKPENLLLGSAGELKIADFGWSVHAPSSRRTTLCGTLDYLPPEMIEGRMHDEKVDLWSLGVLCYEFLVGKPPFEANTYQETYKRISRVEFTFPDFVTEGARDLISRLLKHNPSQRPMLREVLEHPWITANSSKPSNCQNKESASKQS

Kdr = target: T15, Kdr (Homo sapiens, UniProt P35968); assay: Z'-Lyte FRET kinase assay (Invitrogen), Kdr; details: read-out: IC50, activity toward kinase Kdr
T15 construct: purchased Invitrogen (assay run by Invitrogen)

Pyk2 = target: T16, Pyk2 (Homo sapiens, UniProt Q14289); assay: AlphaScreen kinase assay, Pyk2; details: read-out: IC50, activity toward kinase Pyk2
T16 construct: purchased Upstate Biotechnology

Flt1 = target: T17, Flt1 (Homo sapiens, UniProt P17948); assay: AlphaScreen kinase assay, Flt1; details: read-out: IC50, activity toward kinase Flt1
T17 construct: P1826.pETN6 BI-PTP FLT1 M799-D1165-X WT; His6 (N); made in house; host or cells: E. coli (PTP1B co-expressed)
T17 sequence (P17948 with tags, fused parts or gaps): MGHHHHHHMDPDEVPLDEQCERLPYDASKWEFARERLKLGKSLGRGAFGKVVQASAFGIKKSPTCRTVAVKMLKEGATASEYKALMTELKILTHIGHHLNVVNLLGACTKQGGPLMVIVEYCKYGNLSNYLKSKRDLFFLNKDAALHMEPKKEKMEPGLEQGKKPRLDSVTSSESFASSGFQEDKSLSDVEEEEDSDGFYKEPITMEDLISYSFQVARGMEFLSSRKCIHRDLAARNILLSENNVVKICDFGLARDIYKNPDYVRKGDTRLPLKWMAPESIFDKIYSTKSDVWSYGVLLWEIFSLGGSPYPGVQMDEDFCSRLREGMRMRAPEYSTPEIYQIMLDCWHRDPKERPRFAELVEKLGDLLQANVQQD

Fak = target: T18, Fak (Homo sapiens, UniProt Q05397); assay: AlphaScreen kinase assay, Fak; details: read-out: IC50, activity toward kinase Fak
T18 construct: P1358.pFastBacHtb FAK S411-Q686-X; His6 with pFastBacHTb leader (TEV site) (N); made in house; host or cells: Sf9 (baculovirus)

Met = target: T19, Met (Homo sapiens, UniProt P08581); assay: AlphaScreen kinase assay, Met; details: read-out: IC50, activity toward kinase Met
T19 construct: P1818.pETN6 BI-PTP MET G1056-G1364-X WT; His6 (N); made in house; host or cells: E. coli (PTP1B co-expressed)
Summary of the method: as §1

Measured: IC50

T8 sequence (P45984 whole entry): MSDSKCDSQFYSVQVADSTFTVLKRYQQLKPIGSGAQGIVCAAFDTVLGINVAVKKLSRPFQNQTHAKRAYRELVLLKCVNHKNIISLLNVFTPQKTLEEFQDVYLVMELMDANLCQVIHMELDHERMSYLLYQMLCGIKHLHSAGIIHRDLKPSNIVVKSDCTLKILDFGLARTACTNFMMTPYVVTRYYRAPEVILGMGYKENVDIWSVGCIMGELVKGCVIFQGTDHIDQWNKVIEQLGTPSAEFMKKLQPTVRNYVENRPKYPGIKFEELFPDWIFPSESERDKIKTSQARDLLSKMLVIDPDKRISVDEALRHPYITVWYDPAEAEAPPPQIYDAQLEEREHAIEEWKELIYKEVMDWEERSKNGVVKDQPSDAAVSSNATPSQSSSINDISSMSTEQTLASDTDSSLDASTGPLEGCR
T1 sequence (P10721 with tags, fused parts or gaps): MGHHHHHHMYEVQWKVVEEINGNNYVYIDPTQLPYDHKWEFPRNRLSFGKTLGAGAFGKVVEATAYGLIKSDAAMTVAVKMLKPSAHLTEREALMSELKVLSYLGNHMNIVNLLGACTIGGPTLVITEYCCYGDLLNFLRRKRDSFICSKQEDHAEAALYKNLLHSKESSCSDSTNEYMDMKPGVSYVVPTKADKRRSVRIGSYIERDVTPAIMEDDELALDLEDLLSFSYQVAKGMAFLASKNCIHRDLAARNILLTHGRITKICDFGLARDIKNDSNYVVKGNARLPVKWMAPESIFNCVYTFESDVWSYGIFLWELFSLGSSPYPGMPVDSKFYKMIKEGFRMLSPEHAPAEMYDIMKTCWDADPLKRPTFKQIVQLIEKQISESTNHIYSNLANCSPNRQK
T13 sequence (P15056 with tags, fused parts or gaps V600E): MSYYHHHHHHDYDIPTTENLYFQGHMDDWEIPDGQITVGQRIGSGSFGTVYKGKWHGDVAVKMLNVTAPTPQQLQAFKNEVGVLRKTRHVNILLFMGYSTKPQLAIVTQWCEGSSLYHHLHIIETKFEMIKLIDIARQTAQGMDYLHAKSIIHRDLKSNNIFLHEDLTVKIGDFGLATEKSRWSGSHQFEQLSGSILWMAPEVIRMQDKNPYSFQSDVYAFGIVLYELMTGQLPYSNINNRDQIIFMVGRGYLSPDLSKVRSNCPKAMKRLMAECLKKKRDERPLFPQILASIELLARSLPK
Chain of MAP4K4 (O95819 whole entry): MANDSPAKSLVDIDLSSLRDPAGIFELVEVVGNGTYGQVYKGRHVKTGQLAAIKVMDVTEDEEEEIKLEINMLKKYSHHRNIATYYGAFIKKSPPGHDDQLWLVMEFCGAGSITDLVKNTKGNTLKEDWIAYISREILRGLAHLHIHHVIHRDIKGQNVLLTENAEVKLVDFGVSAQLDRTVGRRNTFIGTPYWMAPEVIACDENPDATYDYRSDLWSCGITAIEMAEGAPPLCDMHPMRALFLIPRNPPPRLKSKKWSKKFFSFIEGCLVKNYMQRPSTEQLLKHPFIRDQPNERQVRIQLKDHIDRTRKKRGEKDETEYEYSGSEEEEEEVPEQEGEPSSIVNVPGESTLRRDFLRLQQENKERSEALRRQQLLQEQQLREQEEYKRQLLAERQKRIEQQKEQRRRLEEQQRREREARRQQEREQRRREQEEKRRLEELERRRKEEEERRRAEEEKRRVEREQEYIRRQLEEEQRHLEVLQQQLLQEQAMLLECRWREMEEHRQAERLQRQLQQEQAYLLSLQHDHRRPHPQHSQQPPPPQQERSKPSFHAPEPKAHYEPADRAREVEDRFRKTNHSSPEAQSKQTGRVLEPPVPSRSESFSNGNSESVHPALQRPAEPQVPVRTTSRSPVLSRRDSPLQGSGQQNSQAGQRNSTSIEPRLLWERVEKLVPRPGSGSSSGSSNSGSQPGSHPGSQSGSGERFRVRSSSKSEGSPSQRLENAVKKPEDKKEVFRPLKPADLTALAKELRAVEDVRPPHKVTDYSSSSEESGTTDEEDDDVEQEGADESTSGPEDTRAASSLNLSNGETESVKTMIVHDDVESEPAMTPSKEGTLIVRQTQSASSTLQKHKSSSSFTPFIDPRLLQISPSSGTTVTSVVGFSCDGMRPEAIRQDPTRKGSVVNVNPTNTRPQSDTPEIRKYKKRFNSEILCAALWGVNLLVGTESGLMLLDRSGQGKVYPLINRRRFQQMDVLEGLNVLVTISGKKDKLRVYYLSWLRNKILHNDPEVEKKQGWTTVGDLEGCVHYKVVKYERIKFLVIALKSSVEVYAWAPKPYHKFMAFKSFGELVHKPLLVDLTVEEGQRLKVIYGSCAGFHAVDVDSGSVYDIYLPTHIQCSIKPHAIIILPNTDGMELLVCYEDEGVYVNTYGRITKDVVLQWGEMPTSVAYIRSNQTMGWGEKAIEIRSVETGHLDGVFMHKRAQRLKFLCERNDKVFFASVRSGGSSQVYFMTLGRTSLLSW
Chain of IGF1R (P08069 31-1367): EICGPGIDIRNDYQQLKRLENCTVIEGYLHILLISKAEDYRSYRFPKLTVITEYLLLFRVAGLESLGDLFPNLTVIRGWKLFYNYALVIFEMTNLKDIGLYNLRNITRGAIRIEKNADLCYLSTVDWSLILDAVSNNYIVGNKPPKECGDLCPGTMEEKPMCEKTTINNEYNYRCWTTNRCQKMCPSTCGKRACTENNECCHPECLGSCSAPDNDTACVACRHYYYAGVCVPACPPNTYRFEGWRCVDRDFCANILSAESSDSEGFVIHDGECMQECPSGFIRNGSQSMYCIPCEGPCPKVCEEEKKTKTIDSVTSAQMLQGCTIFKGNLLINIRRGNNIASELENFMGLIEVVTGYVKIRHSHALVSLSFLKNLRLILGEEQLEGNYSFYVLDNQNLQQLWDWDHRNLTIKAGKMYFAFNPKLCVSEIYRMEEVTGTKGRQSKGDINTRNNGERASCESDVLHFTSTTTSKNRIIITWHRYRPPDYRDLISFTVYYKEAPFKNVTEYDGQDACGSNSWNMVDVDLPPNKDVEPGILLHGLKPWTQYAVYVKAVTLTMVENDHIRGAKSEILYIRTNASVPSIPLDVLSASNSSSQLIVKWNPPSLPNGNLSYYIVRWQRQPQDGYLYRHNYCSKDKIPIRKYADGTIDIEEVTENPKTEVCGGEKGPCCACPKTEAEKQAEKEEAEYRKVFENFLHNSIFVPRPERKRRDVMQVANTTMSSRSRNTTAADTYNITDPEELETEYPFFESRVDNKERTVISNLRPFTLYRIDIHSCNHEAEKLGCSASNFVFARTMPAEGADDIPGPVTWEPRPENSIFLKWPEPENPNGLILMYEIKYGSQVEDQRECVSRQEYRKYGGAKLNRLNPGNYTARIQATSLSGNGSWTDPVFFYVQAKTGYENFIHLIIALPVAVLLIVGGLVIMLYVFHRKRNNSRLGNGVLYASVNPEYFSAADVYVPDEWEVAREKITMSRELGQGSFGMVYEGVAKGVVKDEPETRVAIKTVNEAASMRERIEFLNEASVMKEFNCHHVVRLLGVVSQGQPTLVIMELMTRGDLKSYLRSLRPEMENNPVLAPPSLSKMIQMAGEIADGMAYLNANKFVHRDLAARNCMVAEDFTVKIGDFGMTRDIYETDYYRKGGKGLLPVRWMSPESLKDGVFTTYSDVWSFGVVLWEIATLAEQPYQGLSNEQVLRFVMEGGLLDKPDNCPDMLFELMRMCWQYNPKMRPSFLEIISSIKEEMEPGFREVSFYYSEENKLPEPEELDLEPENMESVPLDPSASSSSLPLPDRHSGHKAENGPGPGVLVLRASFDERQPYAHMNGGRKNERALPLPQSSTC
T9 sequence (P04049 whole entry): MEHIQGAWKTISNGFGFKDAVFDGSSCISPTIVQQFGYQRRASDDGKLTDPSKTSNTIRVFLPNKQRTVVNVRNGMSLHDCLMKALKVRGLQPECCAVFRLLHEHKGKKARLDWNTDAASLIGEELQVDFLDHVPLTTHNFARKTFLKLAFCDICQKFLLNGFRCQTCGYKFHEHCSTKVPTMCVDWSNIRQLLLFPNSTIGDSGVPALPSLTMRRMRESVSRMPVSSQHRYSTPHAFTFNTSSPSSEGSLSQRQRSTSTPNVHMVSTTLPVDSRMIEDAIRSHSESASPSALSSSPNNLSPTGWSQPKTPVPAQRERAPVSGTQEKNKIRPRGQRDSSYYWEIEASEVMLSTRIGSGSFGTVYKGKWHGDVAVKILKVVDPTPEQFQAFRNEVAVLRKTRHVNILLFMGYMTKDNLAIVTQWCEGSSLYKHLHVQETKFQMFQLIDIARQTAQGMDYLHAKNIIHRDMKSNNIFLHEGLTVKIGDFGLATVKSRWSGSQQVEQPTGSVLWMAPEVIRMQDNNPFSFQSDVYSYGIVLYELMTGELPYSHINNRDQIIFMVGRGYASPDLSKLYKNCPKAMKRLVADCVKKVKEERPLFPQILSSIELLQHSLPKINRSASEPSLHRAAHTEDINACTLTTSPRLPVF
Chain of Gsk3β (P49841 whole entry): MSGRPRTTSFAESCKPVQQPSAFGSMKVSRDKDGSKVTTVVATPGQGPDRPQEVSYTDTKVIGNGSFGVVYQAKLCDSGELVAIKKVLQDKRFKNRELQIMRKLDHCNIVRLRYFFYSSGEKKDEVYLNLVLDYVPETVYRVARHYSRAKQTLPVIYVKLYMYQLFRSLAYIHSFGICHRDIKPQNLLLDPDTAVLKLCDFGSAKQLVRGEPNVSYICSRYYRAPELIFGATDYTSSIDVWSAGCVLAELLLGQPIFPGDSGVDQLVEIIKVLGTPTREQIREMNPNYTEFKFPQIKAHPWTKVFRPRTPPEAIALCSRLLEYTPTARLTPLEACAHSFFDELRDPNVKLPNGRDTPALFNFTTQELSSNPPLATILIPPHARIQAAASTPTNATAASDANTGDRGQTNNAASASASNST
T18 sequence (Q05397 411-686): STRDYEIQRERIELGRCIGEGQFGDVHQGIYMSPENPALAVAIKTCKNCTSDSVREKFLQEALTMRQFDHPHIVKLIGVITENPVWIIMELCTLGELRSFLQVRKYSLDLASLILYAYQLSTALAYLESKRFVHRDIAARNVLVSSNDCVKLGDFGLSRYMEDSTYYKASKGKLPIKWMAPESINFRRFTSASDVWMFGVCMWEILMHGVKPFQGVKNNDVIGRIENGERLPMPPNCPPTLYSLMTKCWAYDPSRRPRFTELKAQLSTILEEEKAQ

CS(=O)(=O)Nc1ccc(F)c(C(=O)c2c[nH]c3ncc(-c4cccnc4)cc23)c1 [Compound P-0079, N-[4-Fluoro-3-(5-pyridin-3-yl-1H-pyrrolo[2,3-b]pyridine-3-carbonyl)-phenyl]-methanesulfonamide]
not listed: Stk6 | Kdr | Pyk2 | Flt1 | Fak | Met
≤ 10 µM: all other assays above

Nc1cccc(-c2cnc3[nH]ccc3c2)c1 [Compound P-0136]
≤ 10 µM: IGF1R | Kit | Stk6 | Kdr

OCc1cccc(-c2cnc3[nH]ccc3c2)c1 [Compound P-0157]
≤ 10 µM: IGF1R | Kit | Stk6 | Kdr

COc1cccc(-c2cnc3[nH]ccc3c2)c1 [Compound P-0213]
≤ 10 µM: IGF1R | Kit | Jnk3 | Stk6 | Kdr

CS(=O)(=O)Nc1ccc(F)c(C(=O)c2c[nH]c3ncc(-c4cccnc4)cc23)c1F [Compound P-0700, N-[2,4-Difluoro-3-(5-pyridin-3-yl-1H-pyrrolo[2,3-b]pyridine-3-carbonyl)-phenyl]-methanesulfonamide]
not listed: Jnk3 | MAP2K1 | Btk | Fms | Stk6 | Kdr
≤ 10 µM: all other assays above

CS(=O)(=O)Nc1cccc(-c2cnc3[nH]cc(C(=O)c4c(F)ccc(NS(C)(=O)=O)c4F)c3c2)c1 [Compound P-0746, N-{2,4-Difluoro-3-[5-(3-methanesulfonylamino-phenyl)-1H-pyrrolo[2,3-b]pyridine-3-carbonyl]-phenyl}-methanesulfonamide]
≤ 10 µM: IGF1R | B-Raf | FGFR1 | Jnk2 | c-Raf-1 | Ret | B-Raf V600E | Met

CC(C)S(=O)(=O)Nc1ccc(F)c(C(=O)c2c[nH]c3ncc(-c4cccnc4)cc23)c1F [Compound P-0850, propane-2-sulfonic acid [2,4-difluoro-3-(5-pyridin-3-yl-1H-pyrrolo[2,3-b]pyridin-3-carbonyl)-phenyl]-amide]
not listed: Jnk3 | MAP2K1 | Btk | Jnk2 | Ret | Stk6 | Kdr | Flt1 | Met
≤ 10 µM: all other assays above

COc1ccc(F)c(C(=O)c2c[nH]c3ncc(-c4cccc(NC(C)=O)c4)cc23)c1F [Compound P-1390, N-{3-[3-(2,6-Difluoro-3-methoxy-benzoyl)-1H-pyrrolo[2,3-b]pyridin-5-yl]-phenyl}-acetamide]
≤ 10 µM: IGF1R | Kit | B-Raf | Btk | Jnk1 | FGFR1 | c-Raf-1 | Src | Fms | B-Raf V600E | Fak
